Measurements reported in patent US20110039762A1, “TARGETED ANTIMICROBIAL MOIETIES” (C3 JIAN, INC., priority 2009, published 2011).
Entries after “also recorded” stand apart in the source; their conditions may differ.

Tests used:
E. faecalis = test: Kill or inhibit growth/proliferation; morphology, biofilm and growth disruption (Tables 5, 6); format: cell-based, Enterococcus faecalis; parameters: key: A: Peptide aggregates; B: Less hyphal formation; Clumps; Diffuse clumps and small polyps; F: Diffuse growth; H: Thin; I: Growth inhibition; Microcolony formation; Rippled; Small polyps; Thick; W: Halo formation on top, microlonies on bottom; further: test concentration or dose not given here
[1] = test system: microorganisms (e.g., bacteria, yeasts, fungi); test: Targeting peptide binding to target microorganisms (Table 3); details: preferably 1x PBS; for Target(s): microorganism(s) the targeting peptide binds, peptide binding conducted in aqueous buffers varied by peptide solubility; for Target(s) (microorganisms bound by the targeting peptide): peptide binding in aqueous buffers varied by peptide solubility
microorganisms = test: Peptides having multiple activities (targeting/binding, antimicrobial, growth or phenotype altering)
Source text: In certain embodiments, peptides described herein can have multiple activities. Thus for example, a peptide can have both binding/targeting activity and antimicrobial activity. Such peptides can be used, e.g., in a chimeric construct, for any or all of these properties. Thus, for example, a peptide designated “B” in Table 8 can be used as a targeting peptide. If it is also designated G or M it can also be used for antimicrobial activity.

S. pneumoniae = test: Kill or inhibit growth/proliferation; morphology, biofilm and growth disruption (Tables 5, 6); format: cell-based, Streptococcus pneumoniae; parameters: key: A: Peptide aggregates; B: Less hyphal formation; Clumps; Diffuse clumps and small polyps; F: Diffuse growth; H: Thin; I: Growth inhibition; Microcolony formation; Rippled; Small polyps; Thick; W: Halo formation on top, microlonies on bottom; further: test concentration or dose not given here

| Substance | Organism, effect (E. faecalis) | Target(s) [1] | Activities (microorganisms) | Target(s) (microorganisms bound by the targeting peptide) [1] | Organism, effect (S. pneumoniae) | Organism, effect (morphology, biofilm and growth disruption) (S. pneumoniae) | Organism, effect (morphology, biofilm and growth disruption) (E. faecalis) |
| --- | --- | --- | --- | --- | --- | --- | --- |
| PF-484: peptide having multiple activities (chain 1 HKKDIRKQVFKN; chain 2 HKKDIRKQVFKN; Peptide with targeting and/or antimicrobial activity) | E. faecalis (A) | S. epidermidis; also recorded: M. luteus; also recorded: P. mirabilis; also recorded: E. coli; also recorded: E. faecalis; also recorded: C. jeikeium; also recorded: C. jejuni | G B |  |  |  |  |
| PF-588: peptide having multiple activities (ESVEAIKAKAIK; Peptide with targeting and/or antimicrobial activity) | E. faecalis (A) | S. epidermidis; also recorded: E. coli; also recorded: C. albicans; also recorded: E. faecalis; also recorded: C. jeikeium; also recorded: C. jejuni | G B |  |  |  |  |
| PF-593: peptide having multiple activities (MEISTLKKEKLHVKDELSQYLANYKK; Peptide with targeting and/or antimicrobial activity) | E. faecalis (A) | C. jeikeium | G B |  |  |  |  |
| PF-594: peptide having multiple activities (IVSAIV; Peptide with targeting and/or antimicrobial activity) | E. faecalis (C) | C. jeikeium | G B |  |  |  |  |
| PF-602: peptide having multiple activities (LEKEKKEYIEKLFKTK; Peptide with targeting and/or antimicrobial activity) | E. faecalis (A) |  | G B | P. mirabilis; also recorded: C. jeikeium |  |  |  |
| PF-604: peptide having multiple activities (LMEQVEV; Peptide with targeting and/or antimicrobial activity) | E. faecalis (A) |  | G B | S. epidermidis; also recorded: C. albicans; also recorded: C. jeikeium |  |  |  |
| PF-618 (KLNTLNKKDNPSLNDQDKNAVLNLLALAK; Peptide with targeting and/or antimicrobial activity) | E. faecalis (H) |  |  |  | S. pneumoniae (I) |  |  |
| PF-621: peptide having multiple activities (PPSSFLV; Peptide with targeting and/or antimicrobial activity) | E. faecalis (H) |  | G B | S. epidermidis; also recorded: C. albicans | S. pneumoniae (I) |  |  |
| PF-631: peptide having multiple activities (chain 1 LIIYFSKTGNTARATRQI; chain 2 LIIYFSKTGNTARATRQI; Peptide with targeting and/or antimicrobial activity) | E. faecalis (H) |  | G B | S. epidermidis and P. aeruginosa and C. albicans and MRSA and S. pneumoniae and E. faecalis and C. jeikeium | S. pneumoniae (I) |  |  |
| PF-675 (chain 1 EIIPISPTRRCEMHTMSSAEYRGL; chain 2 EIIPISPTRRCEMHTMSSAEYRGL; Peptide with targeting and/or antimicrobial activity) |  |  |  | Mycobacteria spp |  | S. pneumoniae (C) | E. faecalis (R) |
